Data: US20240415808A1, “Dosage Regimen for Fexuprazan Injection Composition” (Daewoong Pharmaceutical Co., Ltd., priority 2021, published 2024)
“And” between values parts separate entries of the source, which are not always exact repeats. Equal entries are not always repeated.

What was measured:
[1] = system: acidity (pH) in the gastrointestinal tract; experiment: oral vs intravenous two-way crossover clinical trial, acidity (pH) in the gastrointestinal tract; format: in vivo, human; details: healthy adults
Description: Therefore, in order to compare the safety/PK/PD of the compound of the present invention during single intravenous administration and during single oral administration and derive the bioavailability, the clinical trial was designed as a randomized, open-label, single-dose, two-period, two-way crossover trial in healthy adults. The selection/exclusion criteria were the same as in Experimental Example 4. A total of 8 subjects were enrolled, and four subjects each were randomly assigned to sequence group 1 or sequence group 2 in the order in which they passed the screening criteria. All test subjects completed safety, pharmacokinetic, and pharmacodynamic evaluations according to the planned clinical trial schedule.
A screening visit was performed 3 to 28 days before the start of the clinical trial, and hospital admission was performed 2 days before medication. The first phase medication was performed according to the order group randomly assigned on the morning of the day. A stabilizer (200 mg), a freeze-drying auxiliary agent (200 mg), and the previously prepared fexuprazan hydrochloride (40 mg based fexuprazan weight) were dissolved in water for injection (4 mL), an appropriate amount of acid was added thereto. A composition whose pH was adjusted to 4.0 was administered intravenously, or an excipient (100 mg), a disintegrant (5 mg), and the previously prepared fexuprazan hydrochloride (40 mg based on fexuprazan weight) were mixed and compressed to prepare a tablet, which were administered orally. The hospital discharge was performed on the third day of medication. The second phase medication was performed on the morning of the 8th after hospital admission on the 6th day after the first phase medication. Hospital discharge was performed on the 10th day of medication. Subsequently, a close-out visit was performed between 15 and 18 days after medication (FIG. 6).
Testing of the acidity (pH) in the gastrointestinal tract and gastric secretion promoting hormone gastrin were performed from 24 hours before medication to 24 hours after medication. Blood collection for pharmacokinetics and urine collection for pharmacokinetics were performed for 48 hours from the time of medication.

[2] = system: acidity in the gastrointestinal tract; experiment: injection maintenance therapy test, acidity in the gastrointestinal tract; format: in vivo, human; details: healthy adults; for Fraction time pH ≥ 6 over 24 hours post-dose (duration %): 40 mg IV over 30 minutes then 4 mg/hr for 71.5 hours; for Fraction time pH ≥ 4 over 24 hours post-dose (duration %) / Mean pH / Median pH: 40 mg IV then 4 mg/hr for 71.5 hours
Experimental: In order to confirm changes in PD values according to fexuprazan injection maintenance therapy, the test was conducted on eight healthy adults between the ages of 19 and 50. To the test subjects, a total of 100 ml of a solution obtained by mixing 40 mg of a freeze-dried preparation (40 mg/vial) prepared in the same manner as that used in Experimental Example 6, and physiological saline was administered intravenously for 30 minutes. Subsequently, on the first day, a total of 1 L of a solution obtained by mixing 94 mg of freeze-dried formulation (40 mg/vial) and physiological saline was administered intravenously as a maintenance dose for 23.5 hours. On the second and third days, a total of 1 L of a solution obtained by mixing 96 mg of freeze-dried formulation (40 mg/vial) and physiological saline was administered intravenously for 24 hours. That is, as a maintenance dose, a total of 3 L of a solution of 286 mg of lyophilized formulation (40 mg/vial) mixed with physiological saline was administered intravenously for 71.5 hours at a rate of 4 mg/hr. The acidity in the gastrointestinal tract was tested on the first and third days, respectively, and the results are shown in Table 14 and FIG. 15 below.

[3] = system: indomethacin-induced bleeding gastric ulcer; experiment: indomethacin-induced bleeding gastric ulcer model using male rats; format: in vivo, rat; details: for Ulcer index (%): 30 min before indomethacin 80 mg/kg oral, autopsy 5 h; for Ulcer index (%) / Gastric erosion state / Gastric hemorrhage state: mean ± SD; for Gastric erosion state / Gastric hemorrhage state: histopathological examination
Experimental: In order to evaluate the efficacy of fexuprazan against bleeding gastric ulcers, an indomethacin-induced bleeding gastric ulcer model using male rats was used.
Specifically, the previously prepared 1-(5-(2,4-difluorophenyl)-1-((3-fluorophenyl)sulfonyl)-4-methoxy-1H-pyrrol-3-yl)-N-methylmethanamine (hereinafter referred to as ‘fexuprazan’) hydrochloride was dissolved in a solution containing 30 wt. % of polyethylene glycol (Polyethylene Glycol 400) polymer in physiological saline. The concentration was adjusted so that 0, 0.1, 0.5, 1, 2 mg/kg based on fexuprazan weight could be administered to each test animal in a liquid volume of 1 mL/kg, and then each test animal was administered through the tail vein as a single dose. In addition, 1 mg/kg of esomeprazole magnesium trihydrate, which is a positive control, based on esomeprazole weight was administered as a single dose through the tail vein in test animals. After 30 minutes, 80 mg/kg of indomethacin was orally administered as a single dose to each test animal to induce gastric bleeding and ulceration. An autopsy was performed 5 hours after administration of indomethacin, and the stomach was removed. Then, the ulcer index (%) was measured using an image program (Leica Application Suite V4), and gastric hemorrhage and erosion state were evaluated through histopathological examination.

[4] = intravenous administration (40 mg)
[5] = 0.1 mg/kg single dose tail vein
[6] = 0.5 mg/kg single dose tail vein

Question: For `CNCc1cn(S(=O)(=O)c2cccc(F)c2)c(-c2ccc(F)cc2F)c1OC` [Fexuprazan, 1-(5-(2,4-difluorophenyl)-1-((3-fluorophenyl)sulfonyl)-4-methoxy-1H-pyrrol-3-yl)-N-methylmethanamine], which “Fraction time pH ≥ 4 (%)” value [1, 4] is on record?
Answer: Its value is 71.6% and 71.6 ± 13.5%.

Question: What about the “Fraction time pH ≥ 6 (%)” value [1, 4] of the same compound?
Answer: Its value is 38.7 ± 10.9%.

Question: What about the “Mean pH” value [1, 4] of the same compound?
Answer: Its value is 4.9 and 4.9 ± 0.5.

Question: What about the “Median pH” value [1, 4] of the same compound?
Answer: The value was 5.5 ± 0.7.

Question: And the “Fraction time pH ≥ 4 (%)” value ([1]; oral administration (40 mg))?
Answer: Its value is 47.5% and 47.5 ± 14.2%.

Question: And the “Fraction time pH ≥ 6 (%)” value ([1]; oral administration (40 mg))?
Answer: Its value is 20.3 ± 12.8%.

Question: What about the “Mean pH” value ([1]; oral administration (40 mg)) of the same compound?
Answer: The value was 3.9 and 3.9 ± 0.7.

Question: And the “Median pH” value ([1]; oral administration (40 mg))?
Answer: Its value is 3.9 ± 1.2.

Question: And the “Fraction time pH ≥ 6 over 24 hours post-dose (duration %)” value ([2]; Day 1)?
Answer: The value was 65.40 ± 18.67%.

Question: What about the “Fraction time pH ≥ 6 over 24 hours post-dose (duration %)” value ([2]; Day 3) of the same compound?
Answer: The value was 76.33 (±15.98) % and 76.33 ± 15.98%.

Question: What about the “Fraction time pH ≥ 4 over 24 hours post-dose (duration %)” value ([2]; Day 1) of the same compound?
Answer: The value was 97.87 ± 1.43%.

Question: What about the “Mean pH” value ([2]; Day 1) of the same compound?
Answer: Its value is 6.17 ± 0.36.

Question: What about the “Median pH” value ([2]; Day 1) of the same compound?
Answer: The value was 6.28 ± 0.32.

Question: What about the “Fraction time pH ≥ 4 over 24 hours post-dose (duration %)” value ([2]; Day 3) of the same compound?
Answer: The value was 99.85 ± 0.40%.

Question: And the “Mean pH” value ([2]; Day 3)?
Answer: Its value is 6.39 ± 0.35.

Question: And the “Median pH” value ([2]; Day 3)?
Answer: The value was 6.44 ± 0.28.

Question: And the “Ulcer index (%)” value [3, 5]?
Answer: Its value is 9.2 ± 2.3^ %.

Question: And the Gastric erosion state [3, 5]?
Answer: Its Gastric erosion state is 2.9 ± 1.2.

Question: What about the Gastric hemorrhage state [3, 5] of the same compound?
Answer: Its Gastric hemorrhage state is 1.5 ± 1.6^.

Question: What about the “Ulcer index (%)” value [3, 6] of the same compound?
Answer: Its value is 4.0 ± 1.8 %.

Question: What about the Gastric erosion state [3, 6] of the same compound?
Answer: Its Gastric erosion state is 1.3 ± 1.0.

Question: And the Gastric hemorrhage state [3, 6]?
Answer: The Gastric hemorrhage state was 0.5 ± 0.8.

Question: And the “Ulcer index (%)” value ([3]; 1 mg/kg single dose tail vein)?
Answer: Its value is 4.2 ± 2.5 %.

Question: And the Gastric erosion state ([3]; 1 mg/kg single dose tail vein)?
Answer: Its Gastric erosion state is 0.8 ± 0.7.

Question: What about the Gastric hemorrhage state ([3]; 1 mg/kg single dose tail vein) of the same compound?
Answer: Its Gastric hemorrhage state is 0.3 ± 0.5.

Question: What about the “Ulcer index (%)” value ([3]; 2 mg/kg single dose tail vein) of the same compound?
Answer: Its value is 4.2 ± 1.5 %.

Question: And the Gastric erosion state ([3]; 2 mg/kg single dose tail vein)?
Answer: Its Gastric erosion state is 0.3 ± 0.5.

Question: What about the Gastric hemorrhage state ([3]; 2 mg/kg single dose tail vein) of the same compound?
Answer: The Gastric hemorrhage state was 0.3 ± 0.5.

Question: And the minimum effective dose ([3]; single dose tail vein, ulcer index, gastric hemorrhage and erosion state vs excipient group)?
Answer: The minimum effective dose was 0.5 mg/kg.
